The values below come from patent US20210341378A1, “HIGH-CONTENT IMAGING OF MICROFLUIDIC DEVICES” (priority 2019, published 2021).

In general, IC50 refers to the concentration needed to halve the response being measured.

Each structure is given as a SMILES string. A value given as a limit tells only on which side of the number the result lay.

The subject of data set [1] is microfluidic devices seeded with human liver cells. Kind of data set: Albumin secretion (ELISA), human Liver-Chip. The following applies: APAP 7 days, quadruple-cell human chip. It counts as cell-based. The text has this:
Prior to cell seeding, microfluidic devices, in this case S-I Chips (Emulate, Inc. Boston, Mass., USA), were functionalized using Emulate's proprietary protocols and reagents (ER™), including those described herein. After surface functionalization, both channels of the microfluidic device were coated with species-specific extracellular matrices (ECM). For the human bound microfluidic device, a mixture of collagen type I (Corning, Corning, N.Y., USA) and fibronectin, e.g. bovine, (Gibco) was used; for the rat bound microfluidic devices a mixture of collagen type IV, e.g. human placenta, (Sigma-Aldrich, St. Louis, Mo., USA) and fibronectin (Gibco) was used; for the dog bound microfluidic devices a mixture of collagen I (Corning), collagen type IV (Sigma-Aldrich), and fibronectin (Gibco) was used. […] For the dual-cell culture model (hepatocytes and endothelial cells), the LSECs were seeded at a concentration of 2-4 million cells/mL in the lower vascular channel. […] After cell seeding, the upper channel of the microfluidic device was maintained in William's E Medium (WEM) containing Glutamax (Gibco), ITS+ (Corning), dexamethasone (Sigma-Aldrich), ascorbic acid (Sigma-Aldrich), fetal bovine serum (FBS) (Sigma-Aldrich), and Penicillin/Streptomycin (Sigma-Aldrich). The vascular channel of the microfluidic device was maintained with species-specific endothelial media (Emulate, Inc.). Two days after seeding, the microfluidic devices were connected to the Human Emulation System™ (Emulate, Inc.), as described in part herein, and both of the microfluidic device channels were perfused at 30 μL/hr to provide a continuous supply of fresh media for the duration of the experiments. Albumin secretion from the upper channel was quantified using ELISA kits for human, rat, and dog models effluent samples (human and rat: Abcam; dog: Immunology Consultants Laboratory, Inc., Portland, Oreg., USA) and the assays were performed according to the protocol provided by each vendor.
For orientation: In an ELISA, binding on a coated surface is turned into a signal by an enzyme label.

The test system is the same in data set [2]. As to the kind of experiment: APAP metabolite quantification by LC-MS, human Liver-Chip. In kind it is in vitro ADME. The following applies: daily 3 mM for 20 days, quadruple-cell human chip. The text has this: After APAP exposure to microfluidic devices seeded with human liver cells, effluent metabolite levels were quantified using LC-MS analysis. […] APAP-Glucuronide (APAP-Glu), the primary metabolite of APAP, was not quantified using a standard curve. Rather, the LC-MS peak area of APAP-Glu was reported corresponding to each sample.

In data set [3] the test system is microfluidic devices seeded with liver cells (hepatocytes and LSECs). As to the kind of experiment: High-content confocal imaging of Liver-Chips treated with staurosporine. It counts as cell-based, human. The following applies: 10 μM, six hours of exposure. How it is done:
Microfluidic devices were obtained from Emulate Inc. (USA) and are illustrated in FIG. 1A. The channels of the microfluidic devices were coated with a proprietary mixture of extracellular matrix and were incubated overnight at 37° C. Primary human cryopreserved hepatocytes sourced from ThermoFisher, as one example, were seeded in the top channel at a density of 3.5×10^6 cells/mL, and were left to form an attached monolayer at 37° C. in a humidified incubator with a 95%/5% ratio of air to CO2.
Twenty-four hours after seeding, the hepatocyte monolayer was overlaid with Matrigel Matrix sourced from Corning, USA. Primary human cryopreserved liver sinusoidal endothelial cells, also known as LSECs, were seeded on the bottom channel of the microfluidic device at a density of 2 to 4×10^6 cells/mL in endothelial medium, also known as CSC medium or Base LSEC Culture Medium; CSC basal Medium plus Culture-Boost (2%), Cell Systems, and Pen/Strep (1%), Sigma. In some embodiments, endothelial cells are cultured in Complete LSEC Culture Medium, Base LSEC Culture Medium plus 10% FBS. […]
The effects of agents, such as staurosporine on cell phenotype was evaluated. […] The protocol was chosen as it was analogous to how the compound has been evaluated in vivo. […]

Data set [4] has as its system Kupffer cells. As to the kind of experiment: Kupffer cell count (CD68-positive cells), human Liver-Chip. It counts as cell-based. As to conditions: human quadruple-cell chip. How it is done: Microfluidic devices seeded with liver cells and static sandwich plate cultures were fixed with 4% paraformaldehyde for 15 minutes at room temperature, washed with PBS, and permeabilized (saponin 1% with 10% serum in PBS). Blocking and incubation with the primary antibodies (overnight in PBS containing 1% BSA or PBS containing 10% serum and 1% BSA) was followed by a two-hour incubation with secondary antibodies (Cell Signaling, Danvers, Mass., USA) in the same blocking buffer. Immunostaining was performed with specific primary antibodies (anti-MRP2, anti-stabilin-1, anti-BSEP, anti-α-SMA, anti-CD68; Abcam, Cambridge, Mass., USA) and images were acquired with either an Olympus fluorescence microscope (IX83) or Zeiss confocal microscope (AxiovertZ1 LSM880).
The number of CD68- or α-SMA-positive cells in the vascular channel in each group was counted in each field of view ([…]) and quantified.

Data set [5] concerns dogs. Kind of data set: Repeat-dose toxicity studies in dogs. In kind it is in vivo. As to conditions: dog study of the cFMS/FLT3 inhibitor. How it is done:
JNJ-1, prepared in purified water, was administered once daily for 14 days to 5 male and 5 female rats at doses of 5, 25, and 125 mg/kg. In a separate study, JNJ-1, also in purified water, was administered once daily for 4 weeks to 5 male and 5 female dogs at 0 or 40 mg/kg/day, and to 3 males and 3 female dogs at 2 or 10 mg/kg/day. Mortality, clinical observations, body weight, food consumption, clinical pathology, gross necropsy and microscopic examination of selected tissues, and toxicokinetics were evaluated. […] Histology slides (hematoxylin and eosin staining and Mason's Trichrome staining) of the liver tissues were prepared and evaluated microscopically. The quantification of JNJ-1 was conducted using a qualified liquid chromatographic-triple quadrupole mass spectrometric (LC-MS/MS) procedure.
JNJ-3 (in 20% hydroxypropyl-β-cyclodextrin) was administered once daily for 14 days to 3 male beagle dogs per group at doses of 15 and 65 mg/kg. Mortality, clinical observations, body weight, food consumption, clinical pathology, gross necropsy and microscopic examination of selected tissues, and toxicokinetics were evaluated. […] Histology slides (hematoxylin and eosin staining and Mason's Trichrome staining) of the liver tissues were prepared and evaluated microscopically. […]

Data set [6] has as its system rats. As to the kind of experiment: Repeat-dose toxicity studies in rats. The following applies: rat study of the cFMS/FLT3 inhibitor. It counts as in vivo. How it is done: JNJ-1, prepared in purified water, was administered once daily for 14 days to 5 male and 5 female rats at doses of 5, 25, and 125 mg/kg. In a separate study, JNJ-1, also in purified water, was administered once daily for 4 weeks to 5 male and 5 female dogs at 0 or 40 mg/kg/day, and to 3 males and 3 female dogs at 2 or 10 mg/kg/day. Mortality, clinical observations, body weight, food consumption, clinical pathology, gross necropsy and microscopic examination of selected tissues, and toxicokinetics were evaluated. Rats or dogs were fasted overnight prior to blood collection for measurement of clinical pathology parameters (including AST and ALT) at the end of 14 days (rats) or 4 weeks (dogs) of dosing. Histology slides (hematoxylin and eosin staining and Mason's Trichrome staining) of the liver tissues were prepared and evaluated microscopically. The quantification of JNJ-1 was conducted using a qualified liquid chromatographic-triple quadrupole mass spectrometric (LC-MS/MS) procedure.
Regarding histology procedures, the liver was sampled. Briefly, 5 serial sections were prepared. One was stained with hematoxylin and eosin (H&E) kit. The 4 others were submitted to histochemical and immunohistochemical stains. Collagen was detected with the Van Gieson kit (Merck, Darmstadt, Germany), and reticulin, with the Reticulum kit (Sigma-Aldrich). […]

In data set [7] the test system is microfluidic devices seeded with human liver cells. Kind of data set: Cytokine release (IL-6, MCP-1, IP-10) from vascular channel, human Liver-Chip. It counts as cell-based. As to conditions: human quadruple-cell chip. On the procedure: Cytokines: Release of IL-6, MCP-1, and IP-10 from the vascular channel was quantified using U-PLEX biomarker human assays (Meso Scale Diagnostics, Rockville, Md., USA) and the assays were performed according to the protocol provided by the vendor.

Data set [8] deals with T1, bile salt export pump (BSEP) (Homo sapiens, UniProt O95342).
T1 construct: Primary rat, dog or human hepatocytes were cultured in the upper parenchymal channel; endogenous in cells; host or cells: primary human hepatocytes co-cultured with LSECs in a microfluidic Liver-Chip
T1 sequence (O95342 whole entry): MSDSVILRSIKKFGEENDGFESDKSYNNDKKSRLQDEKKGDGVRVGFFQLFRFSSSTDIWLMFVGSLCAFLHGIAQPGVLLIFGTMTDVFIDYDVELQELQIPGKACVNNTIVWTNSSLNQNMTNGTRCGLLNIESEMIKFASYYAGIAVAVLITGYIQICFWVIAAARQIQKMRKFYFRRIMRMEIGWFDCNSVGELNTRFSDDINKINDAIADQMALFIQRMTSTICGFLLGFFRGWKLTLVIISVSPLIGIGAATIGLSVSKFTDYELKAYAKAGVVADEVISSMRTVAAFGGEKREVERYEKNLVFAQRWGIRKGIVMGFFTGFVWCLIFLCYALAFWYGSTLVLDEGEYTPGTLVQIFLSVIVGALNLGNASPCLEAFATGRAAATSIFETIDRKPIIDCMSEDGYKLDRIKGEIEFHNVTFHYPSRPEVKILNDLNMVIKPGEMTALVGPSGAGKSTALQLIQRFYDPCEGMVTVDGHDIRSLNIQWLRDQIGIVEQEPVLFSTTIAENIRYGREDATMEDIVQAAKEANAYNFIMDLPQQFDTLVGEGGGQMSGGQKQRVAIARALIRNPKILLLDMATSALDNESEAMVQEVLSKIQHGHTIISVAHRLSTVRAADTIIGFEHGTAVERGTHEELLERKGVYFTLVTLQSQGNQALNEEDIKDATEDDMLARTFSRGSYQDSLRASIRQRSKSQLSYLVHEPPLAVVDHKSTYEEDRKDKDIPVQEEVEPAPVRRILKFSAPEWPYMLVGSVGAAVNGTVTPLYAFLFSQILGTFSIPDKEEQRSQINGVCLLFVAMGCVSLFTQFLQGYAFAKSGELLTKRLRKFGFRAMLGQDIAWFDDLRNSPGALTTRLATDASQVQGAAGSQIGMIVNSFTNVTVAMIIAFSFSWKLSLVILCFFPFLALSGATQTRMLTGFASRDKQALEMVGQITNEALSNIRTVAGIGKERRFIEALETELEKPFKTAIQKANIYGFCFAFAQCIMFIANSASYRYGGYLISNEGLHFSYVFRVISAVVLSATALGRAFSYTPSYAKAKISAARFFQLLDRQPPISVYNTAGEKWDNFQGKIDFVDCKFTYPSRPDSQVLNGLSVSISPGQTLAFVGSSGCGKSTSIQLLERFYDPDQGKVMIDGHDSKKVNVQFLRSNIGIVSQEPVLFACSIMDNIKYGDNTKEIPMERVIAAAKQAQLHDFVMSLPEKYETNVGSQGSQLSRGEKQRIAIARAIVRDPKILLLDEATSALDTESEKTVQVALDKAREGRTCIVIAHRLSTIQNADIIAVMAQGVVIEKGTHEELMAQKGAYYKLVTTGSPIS
As to the kind of experiment: CLF efflux into bile canaliculi (BSEP activity), human Liver-Chip. It counts as cell-based. As to conditions: 30 μM, co-treatment with CLF.
Description: Each staining solution was prepared in blank medium or compound dosing medium and added to the upper channel, incubated for 15 minutes at 37° C., and washed three times with medium. The stained microfluidic devices were imaged using a specific filter, and were de-blurred with Olympus cellSens software. Using ImageJ-Fiji, the fluorescent channel images were histogram adjusted to remove background, followed by fluorescence quantification using the Integrated Density calculation function.
Both a brightfield and a fluorescence image was taken from each field of view. […] CLF-labeled regions that most likely to corresponded to bile canaliculi were automatically identified based on geometric criteria and retained only if they co-localized with a bile canaliculi signal in channel 1. […] These criteria were determined empirically using a small test set of images and then applied to images for the analysis. […] The data for treated and control samples were quantified by computing the area percentage of CLF-labeled bile canaliculi within each field of view (FOV).

Data set [9] deals with BSEP. As to the kind of experiment: BSEP protein area and gene expression, human Liver-Chip. In kind it is cell-based. The following applies: 30 μM.
Description: In one embodiment, gene expression levels were analyzed using 2-step PCR. […] Relative gene expression levels were calculated using ddCt method.
The fluorescent channel images were first de-blurred with Olympus cellSens software. Using ImageJ, they were then histogram adjusted to remove background, adaptive thresholded to extract fluorescent regions (a plugin developed by Qingzong Tseng using the adaptive threshold method of the OpenCV library), and analyzed using the built-in 3D Object Counter function with an area cutoff value to remove noise.
Data set [10] deals with microfluidic devices seeded with rat liver cells. Kind of data set: Albumin secretion (ELISA), rat Liver-Chip. The following applies: 168 h; dual-cell rat chips, daily administration 1-100 μM for 7 days; read-out: IC50 of decrease in albumin secretion. It counts as cell-based. The text has this: Prior to cell seeding, microfluidic devices, in this case S-I Chips (Emulate, Inc. Boston, Mass., USA), were functionalized using Emulate's proprietary protocols and reagents (ER™), including those described herein. After surface functionalization, both channels of the microfluidic device were coated with species-specific extracellular matrices (ECM). For the human bound microfluidic device, a mixture of collagen type I (Corning, Corning, N.Y., USA) and fibronectin, e.g. bovine, (Gibco) was used; for the rat bound microfluidic devices a mixture of collagen type IV, e.g. human placenta, (Sigma-Aldrich, St. Louis, Mo., USA) and fibronectin (Gibco) was used; for the dog bound microfluidic devices a mixture of collagen I (Corning), collagen type IV (Sigma-Aldrich), and fibronectin (Gibco) was used. […] For the dual-cell culture model (hepatocytes and endothelial cells), the LSECs were seeded at a concentration of 2-4 million cells/mL in the lower vascular channel. […] Albumin secretion from the upper channel was quantified using ELISA kits for human, rat, and dog models effluent samples (human and rat: Abcam; dog: Immunology Consultants Laboratory, Inc., Portland, Oreg., USA) and the assays were performed according to the protocol provided by each vendor.

Data set [11] deals with 3D human spheroid hepatic cultures. As to conditions: fold higher than the human Liver-Chip IC50; cited from earlier work.

As to `CC(=O)Nc1ccc(O)cc1` [APAP, acetaminophen], the albumin synthesis result in [1] was “decreased”. Moreover, the “APAP glucuronide in parenchymal and vascular channels” value in data set [2] is reported as “significant amounts”.

For `CN[C@@H]1C[C@H]2O[C@@](C)([C@@H]1OC)n1c3ccccc3c3c4c(c5c6ccccc6n2c5c31)C(=O)NC4` [Staurosporine, staurosporine], in [3], the LSECs result is reported as “complete loss” and the “apoptotic marker (CC3)” value was “marked increases”.

`CN(C)CC(=O)N1CCC(c2ccc(NC(=O)c3nc(C#N)c[nH]3)c(C3=CCCCC3)c2)CC1` [a JNJ compound]: the “CD68-positive cells (Kupffer cell depletion)” value in data set [4] is listed as “decreased number”. Further, in [5], the “microscopic changes in the liver” value was “without any correlative microscopic changes” and the transaminases entry is “Dose-related elevation”. Besides, in [6], the “microscopic changes in the liver” value is on record as “without any correlative microscopic changes” and the transaminases entry is given as “Dose-related elevation”. Also, in data set [7], the “interleukin 6 (IL-6) in the vascular channel” value was “dose-dependent decrease” and the “monocyte chemoattractant protein-1 (MCP-1) in the vascular channel” value is “dose-dependent decrease”.

For `COc1ccccc1Oc1c(NS(=O)(=O)c2ccc(C(C)(C)C)cc2)nc(-c2ncccn2)nc1OCCO` [bosentan], in data set [8], the “CLF in human hepatocytes” value was “intracellular accumulation”. In [9], the “BSEP mRNA levels” value is “decreases” and the BSEP protein levels result is listed as “decreases”. In addition, in [10], the IC50 was > 100 µM. Besides, the “IC50 in 3D human spheroid hepatic cultures relative to human chip” value in data set [11] is “more than 10 fold”.
